Results from patent US8992982B2, “Formulation of indomethacin” (Iceutica Pty Ltd., priority 2009, dated 2015).

How the values were obtained:
Assay type in all cases: in vivo, human
[1] = test system: pain after surgical removal of impacted third molars; assay: Phase 2 dental pain study: patient's global evaluation of study drug; conditions: 400 mg; ITT
Description: (§1) The secondary efficacy endpoints were as follows: • TOTPAR over 0 to 4 hours (TOTPAR-4) after Time 0 • Visual Analogue Scale (VAS) pain intensity difference (VASPID) at each scheduled time point after Time 0 • Time to onset of analgesia (measured as time to perceptible pain relief confirmed by meaningful pain relief) • VAS pain intensity score at each scheduled time point • VAS summed pain intensity difference (VASSPID) over 0 to 4 hours (VASSPID-4) and over 0 to 8 hours (VASSPID-8) after Time 0 • Pain relief score at each scheduled time point after Time 0 • Peak pain relief • Time to peak pain relief • Time to first perceptible pain relief • Time to meaningful pain relief • Proportion of subjects using rescue medication • Time to first use of rescue medication (duration of analgesia) • Patient's global evaluation of study drug Safety:
For ordinal secondary endpoints such as pain relief at each scheduled time point, peak pain relief, and global evaluation of study drug, descriptive summaries including the number and percentage of subjects within each category were provided for each treatment group. Nominal P values from Cochran-Mantel-Haenszel tests comparing the placebo group with other treatment groups were provided, but no formal statistical inferences were drawn on the basis of these tests.

[2] = test system: pain after surgical removal of impacted third molars; assay: Phase 2 dental pain study: 2-stopwatch method (time to onset of analgesia, first perceptible and meaningful pain relief); conditions: ITT
Description: (§2) Subjects assessed their baseline pain intensity (VAS) before receiving study drug (predose, Time 0) and their pain intensity (VAS) and pain relief (5-point categorical scale) at 15, 30, and 45 minutes and 1, 1.5, 2, 3, 4, 5, 6, 7, and 8 hours after Time 0 and immediately before the first dose of rescue medication. The 2-stopwatch method was used to record the time to perceptible and time to meaningful pain relief, respectively. Acetaminophen (1000 mg) was permitted as the initial rescue medication. Subjects were encouraged to wait at least 60 minutes after receiving study drug before taking rescue medication. […] Other restrictions included the following: no alcohol use from 24 hours before surgery until discharge on Day 1; nothing by mouth (NPO) from midnight before surgery until 1 hour after surgery; clear liquids only from 1 hour after surgery until 1 hour after dosing; and advancement of diet 1 hour after dosing according to standard practice.
as §1
(§3) For each time-to-event endpoint, the Kaplan-Meier method was used to evaluate the treatment effect. Time to onset of analgesia (measured as time to perceptible pain relief confirmed by meaningful pain relief) was based on data collected using the 2-stopwatch method. […] A summary table provided the number of subjects analyzed, the number of subjects censored, estimates for the quartiles, and 95% confidence intervals (CIs) for the estimated median. P values from log-rank tests were also used to examine treatment effect. Cox proportional hazard models were used to explore potential covariates such as sex, baseline pain intensity, and surgical trauma rating, if appropriate.

[3] = test system: pain after surgical removal of impacted third molars; assay: Phase 2 dental pain study: use of rescue medication (proportion of subjects, time to first use); conditions: 400 mg
Description: as §2, §1, §3
For the proportion of subjects using rescue medication, a logistic regression model that adjusted for baseline pain intensity was used to evaluate the treatment effect. Subgroup analysis by sex was performed if sex was confirmed to be a statistically significant covariate for TOTPAR-8. Baseline values were defined as the last measurements taken before dosing with a study drug.

With Cc1ccc(-c2cc(C(F)(F)F)nn2-c2ccc(S(N)(=O)=O)cc2)cc1 [Celecoxib] the “Patient's global evaluation of study drug: Excellent, %” value [1] was “(15.7) %”, the “Patient's global evaluation of study drug: Fair, %” value [1] was “(17.6) %” and the “Patient's global evaluation of study drug: Good, %” value [1] was “(19.6) %”. For the same molecule, the “Patient's global evaluation of study drug: Poor, %” value [1] was “(11.8) %”, the “Patient's global evaluation of study drug: Very Good, %” value [1] was “(35.3) %” and the “Hazard ratio vs placebo, Cox proportional hazards model (time to first perceptible pain relief)” value ([2]; 400 mg) was 1.7. The “Hazard ratio vs placebo, Cox proportional hazards model (time to meaningful pain relief)” value ([2]; 400 mg) was 3.2, the “Time to first perceptible pain relief: subjects analyzed, %” value ([2]; 400 mg) was “(92.2) %” and the “Time to first perceptible pain relief: subjects censored, %” value ([2]; 400 mg) was “(7.8) %”. For the same molecule, the “Time to meaningful pain relief: subjects analyzed, %” value ([2]; 400 mg) was “(68.6) %”, the “Time to meaningful pain relief: subjects analyzed, n” value ([2]; 400 mg) was 35 and the “Time to meaningful pain relief: subjects censored, %” value ([2]; 400 mg) was “(31.4) %”. For the same molecule, the “Time to meaningful pain relief: subjects censored, n” value ([2]; 400 mg) was 16, the “Time to onset of analgesia, Hazard ratio” value ([2]; Cox proportional hazards model, vs placebo) was 4.4 and the “Time to onset of analgesia: subjects analyzed” value [2] was “(68.6) %”. For the same molecule, the “Time to first perceptible pain relief, Mean” value ([2]; Kaplan-Meier estimate, 400 mg) was 0.9 h, the “Time to first perceptible pain relief, Q25” value ([2]; Kaplan-Meier estimate, 400 mg) was 0.35 h and the “Time to first perceptible pain relief, Q50” value ([2]; Kaplan-Meier estimate, 400 mg) was 0.60 h. The “Time to first perceptible pain relief, Q75” value ([2]; Kaplan-Meier estimate, 400 mg) was 0.97 h, the “Time to meaningful pain relief, Mean” value ([2]; Kaplan-Meier estimate, 400 mg) was 2.6 h and the “Time to meaningful pain relief, Q25” value ([2]; Kaplan-Meier estimate, 400 mg) was 0.75 h. The “Time to meaningful pain relief, Q50” value ([2]; Kaplan-Meier estimate, 400 mg) was 1.33 h, the “Time to meaningful pain relief, Q75” value ([2]; Kaplan-Meier estimate, 400 mg) was 4.27 h and the “Time to onset of analgesia, Mean” value ([2]; Kaplan-Meier estimate) was 0.9 h. The “Time to onset of analgesia, Q25” value ([2]; Kaplan-Meier estimate) was 0.38 h, the “Time to onset of analgesia, Q50” value ([2]; Kaplan-Meier estimate) was 0.72 h and the “Time to onset of analgesia: subjects censored” value ([2]; right-censored at 8 hours) was “(31.4) %”. For the same molecule, the “Hazard ratio vs placebo, Cox proportional hazards model (time to first use of rescue medication)” value [3] was 0.2, the “Time to first use of rescue medication: subjects analyzed, %” value [3] was “(41.2) %” and the “Time to first use of rescue medication: subjects censored, %” value [3] was “(58.8) %”. For the same molecule, the “Time to first use of rescue medication, Mean” value ([3]; Kaplan-Meier estimate) was 4.7 h and the “Time to first use of rescue medication, Q25” value ([3]; Kaplan-Meier estimate) was 3.30 h.
